In patent publication US20110275703A1, “SUBSTITUTED SPIROKETAL DERIVATIVES AND USE THEREOF AS THERAPEUTIC DRUG FOR DIABETES” (CHUGAI SEIYAKU KABUSHIKI KAISHA, priority 2007, published 2011):
Read-outs that look alike come from different tables or passages of the source.

Tests used:
db/db mice = test: Study for glucose lowering effect in db/db mouse; type: in vivo; details: for inhibition in vivo at 0.3 mg/kg: Mus musculus; for Percent reduction of blood glucose (%) 6 hours after administration / inhibition in vivo at 0.3 mg/kg: 6 hours
Description: Study for Glucose Lowering Effect in dB/dB Mouse
A study for glucose lowering effect was conducted using db/db mice (purchased from Clea Japan, Inc., male, 9 to 11 weeks old), type 2 diabetic model mice. On the day of the study, body weights and blood glucose levels were measured prior to the start of testing. Measurement of the blood glucose levels was performed using a simple blood glucose meter (manufactured by Bayer HealthCare, Dexter-Z II). The mice were allocated to some groups consisting of 5 mice each so that homogeneity of body weights or blood glucose levels among groups would be ensured. Blood collection was carried out by making an incision on the tip of the tail and taking the blood therefrom. On the day of the study, the test compounds were suspended in 0.5% carboxymethylcellulose solution (CMC solution), and the dosing solutions of which concentration was adjusted to either 0.3 mg/10 mL or 3 mg/10 mL were prepared. The dosing solutions were orally administered by gavage for mice in 10 mL/kg. To the control group, only a 0.5% CMC solution was orally administered in 10 mL/kg. Blood was collected prior to or sequentially after administration of test compounds by above method. The blood glucose levels were determined using a hexokinase method (AutoSera S GLU, manufactured by Daiichi Pure Chemicals Co., Ltd.). A percent reduction of blood glucose relative to control group at each time point after administration of test compounds was calculated by the following equation.
Percent reduction of blood glucose (%)={blood glucose level in the control group (mg/dL)-blood glucose level in the test compound group (mg/dL)}/blood glucose level in the control group (mg/dL)×100

human SGLT2 = molecular target: T1, human SGLT2 (Homo sapiens, UniProt P31639); test: Inhibitory activity against methyl-α-D-glucopyranoside uptake, CHO cells stably expressing human SGLT2; type: cell-based; details: inhibition of SGLT2, Table 2-1; read-out: IC50 value
T1 construct: expressed in transfected cells; host or cells: CHO-K1
T1 sequence (P31639 1-672): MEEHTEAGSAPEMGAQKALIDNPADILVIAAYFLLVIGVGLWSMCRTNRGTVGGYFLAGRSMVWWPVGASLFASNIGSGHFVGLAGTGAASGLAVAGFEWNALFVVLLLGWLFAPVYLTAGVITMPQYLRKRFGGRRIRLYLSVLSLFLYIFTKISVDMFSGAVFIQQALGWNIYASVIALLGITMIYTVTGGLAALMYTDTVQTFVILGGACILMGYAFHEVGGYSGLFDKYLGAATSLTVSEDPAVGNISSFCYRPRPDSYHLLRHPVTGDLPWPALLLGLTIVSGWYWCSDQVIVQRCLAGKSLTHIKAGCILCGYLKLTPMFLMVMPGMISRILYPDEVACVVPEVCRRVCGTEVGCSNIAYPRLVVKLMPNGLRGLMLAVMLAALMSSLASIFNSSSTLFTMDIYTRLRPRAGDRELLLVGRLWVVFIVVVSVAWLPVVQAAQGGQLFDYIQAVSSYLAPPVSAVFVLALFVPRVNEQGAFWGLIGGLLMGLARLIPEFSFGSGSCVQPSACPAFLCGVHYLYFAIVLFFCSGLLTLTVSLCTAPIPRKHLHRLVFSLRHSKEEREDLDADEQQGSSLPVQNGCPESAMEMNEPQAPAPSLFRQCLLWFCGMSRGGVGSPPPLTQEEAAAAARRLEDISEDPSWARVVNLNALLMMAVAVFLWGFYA
Excerpt: Evaluation of inhibitory activity against methyl-α-D-glucopyranoside uptake of human Na^+-glucose cotransporter (SGLT1 and SGLT2)
2) Construction of Human SGLT2 Expression Vector
Human SGLT2 cDNA was amplified by PCR with a cDNA library derived from human kidney (Clontech) as a template, synthetic DNA primers and KOD+ DNA Polymerase. The amplified cDNA was inserted into pcRII-Topo vector by using a Topo TA Cloning Dual Promoter kit. E. coli competent cells (TPO10) were transformed with the plasmid vector, cultured in LB medium containing ampicillin (50 mg/L) to grow ampicillin-resistant clones. The plasmid vector containing human SGLT2 cDNA was purified from the clone in a standard manner. Human SGLT2 cDNA added restriction enzyme recognition sites (Xho I at 5′-end, Hind III at 3′-end) was amplified by PCR with the plasmid vector as a template, synthetic DNA primers containing an additional restriction enzyme recognition site and KOD+ DNA Polymerase. This amplified cDNA was digested with Xho I and Hind III, and ligated into expression vector pcDNA3.1(−) digested with Xho I and Hind III by using a Rapid DNA Ligation kit. E. coli competent cells (DH5α) were transformed with the ligated expression vector and grown in ampicillin-containing LB medium. Human SGLT2 expression vector was purified from the ampicillin-resistant clone in a standard manner.
3) Establishment of Cell Lines Stably Expressing Human SGLT1 or Human SGLT2
The human SGLT1 expression vector or the human SGLT2 expression vector was digested with the restriction enzyme Pvu I and transfected into CHO-Kl cells with FuGENE (Roche Diagonostics). After the transfection, the cells were cultured at 37° C. in the presence of 5% CO2 for about 3 weeks in DMEM medium (Gibco) containing penicillin (50 U/mL, SIGMA), streptomycin (50 mg/L, SIGMA), geneticin (200 mg/L, Nacalai Tesque, Inc., Japan) and 20% fetal bovine serum to obtain geneticin-resistant clones. Among these clones, clones stably expressing human SGLT1 or human SGLT2 were selected by the evaluating the sodium-dependent uptake activity of sugar (methyl-α-D-glucopyranoside).
4) Evaluation of Inhibitory Activity Against methyl-α-D-glucopyranoside uptake
Cell lines stably expressing human SGLT1 or human SGLT2 CHO were seeded in 96-well culture plates at a density of 30000 to 40000 cells/well and cultured for 4 to 6 days. The medium in these plates was removed and replaced by 150 μL/well pretreatment buffer (i.e., a buffer containing 140 mM choline chloride, 2 mM potassium chloride, 1 mM calcium chloride, 1 mM magnesium chloride, 10 mM 2-[4-(2-hydroxyethyl)-1-piperazinyl]ethanesulfonic acid and tris(hydroxymethyl)aminomethane, pH 7.4), and the plates were incubated at 37° C. for 20 minutes. The pretreatment buffer in the plates was removed, replaced by 50 μL/well fresh pretreatment buffer, and the plates were incubated at 37° C. for 20 minutes. Methyl-α-D-(U—^14C)glucopyranoside (6.3 mL, Amersham Pharmacia Biotech, 200 mCi/L) was added to and mixed with 100 mL buffer (i.e., a buffer containing 140 mM sodium chloride, 2 mM potassium chloride, 1 mM calcium chloride, 1 mM magnesium chloride, 1 mM methyl-α-D-glucopyranoside, 10 mM [4-(2-hydroxyethyl)-1-piperazinyl]ethanesulfonic acid and tris(hydroxymethyl)aminomethane, pH 7.4), which was used as uptake buffer. Test compounds were dissolved into uptake buffer and these test compound solutions were used for evaluating inhibitory activity. Uptake buffer without a test compound was used as a control solution. Moreover, for use in measuring baseline uptake in the absence of sodium, sodium-free solution was prepared in the same manner to contain 140 mM choline chloride instead of sodium chloride. The pretreatment buffer was removed from each well of the plates and replaced by 35 μL/well test compound solutions, control solution or sodium-free solution, and the plates were incubated at 37° C. for 45 minutes. […]

[1] = oral, 0.3 mg/kg, relative to control group, Table 3-2
[2] = oral, 3.0 mg/kg, relative to control group, Table 3-2
[3] = po, 0.3 mg/kg administration, read-out: reduction of blood glucose 6 hours after administration
[4] = oral, 0.3 mg/kg, relative to control group, Table 3-1, read-out: Percent reduction of blood glucose (%) 6 hours after administration

Row | Structure (SMILES) | IC50 (human SGLT2) [nM] | inhibition in vivo at 0.3 mg/kg (db/db mice; [3]) [%] | further results
1 | CC(C)c1ccc(Cc2ccc3c(c2)C2(OC3)OC(CO)C(O)C(O)C2O)cc1 (stereo not drawn) [Comparative Compound 2, 1,1-anhydro-1-C-[5-(4-isopropylphenyl)methyl-2-(hydroxymethyl)phenyl]-β-glucopyranose, reference compound] |  |  | Percent reduction of blood glucose (%) 6 hours after administration (db/db mice; oral, 0.3 mg/kg, relative to control group, Table 3-1): 16%; Percent reduction of blood glucose (%) 6 hours after administration (db/db mice; [1]): 16%; Percent reduction of blood glucose (%) 24 hours after administration (db/db mice; [1]): 4.9%; Percent reduction of blood glucose (%) 6 hours after administration (db/db mice; [2]): 53%; Percent reduction of blood glucose (%) 24 hours after administration (db/db mice; [2]): 13%
2 | Cc1ccc(Cc2cc3c(cc2Cl)CO[C@]32O[C@H](CO)[C@@H](O)[C@H](O)[C@H]2O)cc1 [Example 2, (1S,3′R,4′S,5′S,6′R)-5-chloro-3′,4′,5′,6′-tetrahydro-6′-(hydroxymethyl)-6-[(4-methylphenyl)methyl]-spiro[isobenzofuran-1(3H),2′-[2H]pyran]-3′,4′,5′-triol] | 1.2 |  | 
3 | CSc1ccc(Cc2cc3c(cc2Cl)CO[C@]32O[C@H](CO)[C@@H](O)[C@H](O)[C@H]2O)cc1 [Example 3, (1S,3′R,4′S,5′S,6′R)-5-chloro-3′,4′,5′,6′-tetrahydro-6′-(hydroxymethyl)-6-[(4-(methylthio)phenyl)methyl]-spiro[isobenzofuran-1(3H),2′-[2H]pyran]-3′,4′,5′-triol] | 1.3 |  | 
4 | COc1ccc(Cc2cc3c(cc2Cl)CO[C@]32O[C@H](CO)[C@@H](O)[C@H](O)[C@H]2O)cc1 [Example 4, (1S,3′R,4′S,5′S,6′R)-5-chloro-3′,4′,5′,6′-tetrahydro-6′-(hydroxymethyl)-6-[(4-methoxyphenyl)methyl]-spiro[isobenzofuran-1(3H),2′-[2H]pyran]-3′,4′,5′-triol] | 1 |  | 
5 | OC[C@H]1O[C@]2(OCc3cc(Cl)c(Cc4ccc(Cl)cc4)cc32)[C@H](O)[C@@H](O)[C@@H]1O [Example 6, (1S,3′R,4′S,5′S,6′R)-5-chloro-6-[(4-chlorophenyl)methyl]-3′,4′,5′,6′-tetrahydro-6′-(hydroxymethyl)-spiro[isobenzofuran-1(3H),2′-[2H]pyran]-3′,4′,5′-triol] | 1.3 | ≥ 25 | 
6 | OC[C@H]1O[C@]2(OCc3cc(Cl)c(Cc4ccc(CC(F)F)cc4)cc32)[C@H](O)[C@@H](O)[C@@H]1O [Example 10, (1S,3′R,4′S,5′S,6′R)-5-chloro-6-[(4-(2,2-difluoroethyl)phenyl)methyl]-3′,4′,5′,6′-tetrahydro-6′-(hydroxymethyl)-spiro[isobenzofuran-1(3H),2′-[2H]pyran]-3′,4′,5′-triol] | 1.2 | ≥ 25 | 
7 | OC[C@H]1O[C@]2(OCc3cc(Cl)c(Cc4ccc(OC(F)(F)F)cc4)cc32)[C@H](O)[C@@H](O)[C@@H]1O [Example 11, (1S,3′R,4′S,5′S,6′R)-5-chloro-6-[(4-trifluoromethoxyphenyl)methyl]-3′,4′,5′,6′-tetrahydro-6′-(hydroxymethyl)-spiro[isobenzofuran-1(3H),2′-[2H]pyran]-3′,4′,5′-triol] | 1.9 |  | inhibition in vivo at 0.3 mg/kg (db/db mice; [4]): 45%

More lines, main results first:

Row | IC50 (human SGLT2) [nM] | Structure (SMILES) | inhibition in vivo at 0.3 mg/kg (db/db mice; [3]) [%] | further results
8 | 1.5 | CC(=O)c1ccc(Cc2cc3c(cc2Cl)CO[C@]32O[C@H](CO)[C@@H](O)[C@H](O)[C@H]2O)cc1 [Example 12, (1S,3′R,4′S,5′S,6′R)-6-[(4-acetylphenyl)methyl]-5-chloro-3′,4′,5′,6′-tetrahydro-6′-(hydroxymethyl)-spiro[isobenzofuran-1(3H),2′-[2H]pyran]-3′,4′,5′-triol] |  | inhibition in vivo at 0.3 mg/kg (db/db mice; [4]): 27%
9 | 1.7 | OC[C@H]1O[C@]2(OCc3cc(Cl)c(Cc4ccc(C(F)(F)F)cc4)cc32)[C@H](O)[C@@H](O)[C@@H]1O [Example 13, (1S,3′R,4′S,5′S,6′R)-5-chloro-6-[(4-trifluoromethylphenyl)methyl]-3′,4′,5′,6′-tetrahydro-6′-(hydroxymethyl)-spiro[isobenzofuran-1(3H),2′-[2H]pyran]-3′,4′,5′-triol] | ≥ 25 | 
10 | 3.4 | CC(C)(C)c1ccc(Cc2cc3c(cc2Cl)CO[C@]32O[C@H](CO)[C@@H](O)[C@H](O)[C@H]2O)cc1 [Example 14, (1S,3′R,4′S,5′S,6′R)-6-[(4-tert-butylphenyl)methyl]-5-chloro-3′,4′,5′,6′-tetrahydro-6′-(hydroxymethyl)-spiro[isobenzofuran-1(3H),2′-[2H]pyran]-3′,4′,5′-triol] | ≥ 25 | 
11 | 1.4 | OC[C@H]1O[C@]2(OCc3cc(Cl)c(Cc4cc5ccccc5s4)cc32)[C@H](O)[C@@H](O)[C@@H]1O [Example 28, (1S,3′R,4′S,5′S,6′R)-6-[(benzothiophen-2-yl)methyl]-5-chloro-3′,4′,5′,6′-tetrahydro-6′-(hydroxymethyl)-spiro[isobenzofuran-1(3H),2′-[2H]pyran]-3′,4′,5′-triol] |  | 
12 | 1.5 | CCc1ccc(Cc2cc3c(cc2Cl)CO[C@]32O[C@H](CO)[C@@H](O)[C@H](O)[C@H]2O)s1 [Example 29, (1S,3′R,4′S,5′S,6′R)-5-chloro-6-[(5-ethylthiophen-2-yl)methyl]-3′,4′,5′,6′-tetrahydro-6′-(hydroxymethyl)-spiro[isobenzofuran-1(3H),2′-[2H]pyran]-3′,4′,5′-triol] |  | 
